Test [1] deals with HCT116 colon cancer cells engineered to over-express AKR1C3. Nature of the test: Anti-proliferative IC50 assay (SRB), HCT116 over-expressing AKR1C3. It counts as cell-based, human. The settings on record: for IC50 Ratio WT:AKR1C3: HCT116-WT vs HCT116-AKR1C3. The text has this: (§1) The cellular cytotoxicity of compounds of the invention resulting from AKR1C3-dependent metabolism of the compounds can readily be observed in anti-proliferative IC50 testing in isogenic cell lines that have been engineered to over-express human AKR1C3, relative to their wild-type counterparts that have been selected for their comparatively low levels of endogenous AKR1C3 expression (by Western blot analysis). The direct role of AKR1C3 in metabolism and cytotoxicity of the compounds is further supported for selected examples by repeat anti-proliferative experiments in the presence of a potent and selective small molecule inhibitor of AKR1C3, SN34037 (Flanagan et al., Bioorganic & Medicinal Chemistry (2014), 22(3), 967-977).
(§2) Four hundred cells were seeded in a volume of 100 μL in each well of a 96-well plate. The cells were left in a humidified incubator (37° C., 5% CO2) for 2 hours in order to enable attachment to the surface of the wells prior to compound addition. All compounds were prepared as stocks in DMSO and stored at −80° C. Frozen stocks of compounds were thawed immediately prior to addition to cells. Working solutions of each compound were made in α-MEM+5% FBS (v/v) at 3 times the required final concentration for the top well. The final concentration of DMSO in the α-MEM solution was ensured to not exceed 1% of the total volume. 50 μL of the working solution was added to the top wells (in duplicates) and gently mixed. The solubility of some compounds precluded the working solution in α-MEM to be 3 times the desired top well concentration. […] A 3-fold serial dilution was carried out along the plate starting from the top well. The first column of wells on the plate served as blanks (containing α-MEM+FBS) and the second column served as control wells (containing cells with no compound added). Following compound addition, the plates were incubated for 4 hours in a humidified incubator (37° C., 5% CO2).
(§3) Following the 4 hour compound exposure, the 96-well plates were washed three times by aspirating media with an Immuno Washer (Nunc) and each well replaced with 150 μL of α-MEM+5% (v/v) FBS+1% (v/v) P/S. The plates were left in a humidified incubator (37° C., 5% CO2) for 5 days to enable cell growth. The cells in 96-well plates were fixed 5 days after compound exposure by adding 50 μL of a 40% (w/v) trichloroacetic acid (TCA) solution so as to obtain a final TCA concentration of 10% in each well. The plates were left in the refrigerator (4° C.) for 1 hour and subsequently rinsed 3 times in tap water. Any excess water was left to drain and the cells were stained with 50 μL of 0.4% (w/v) sulforhodamine B (SRB). The plates with the SRB stain were left in the dark for 30 minutes. Excess stain was removed from the wells by rinsing the plates 4 times in water containing 1% (v/v) acetic acid. The stain was solubilised by adding 100 μL of 10 mM unbuffered Tris (pH 10.5) to each well and the plates were left in a shaker in a dark environment at room temperature for at least 1 hour. The absorbance values of the wells were determined by an ELx 808 Absorbance Microplate Reader (Bio-Tek Instruments, Winooski, Vt., USA), with the wavelength of the measurement filter set at 490 nm and a reference filter set at 450 nm. The absorbance of the reference filter was subtracted from the measurement filter to obtain a final absorbance of λ490-450 nm. The absorbance data was analysed and IC50 values determined by the KC4 microplate data analysis software (KC4™ V3.4, Bio-Tek).
(§4) Anti-proliferative IC50 assays were repeated as described above including the addition of 3 μM SN34037, a selective and potent small molecule inhibitor of AKR1C3.

Test [2] deals with wild-type HCT116 colon cancer cells. Nature of the test: Anti-proliferative IC50 assay (SRB), wild-type HCT116. It counts as cell-based, human.
Text: as §1, §2, §3, §4

For test [3], the system named is SNU398 hepatocellular carcinoma cells engineered to over-express AKR1C3. Nature of the test: Anti-proliferative IC50 assay, SNU398 over-expressing AKR1C3. It counts as cell-based, human. On the procedure: as §2, §3, §4
(§5) Materials and methods used are as described for Example 9. […] This is a surprising finding and considerably greater than the approximately 77-fold, 270-fold and 400-fold increase in sensitivity observed for PR-104A, SN33540 and SN34454, respectively. In all cases, this increase in cytotoxicity resulting from expression of AKR1C3 can be substantially reversed by addition of an AKR1C3 inhibitor (SN34037), directly implicating metabolism of the prodrugs by AKR1C3 in the observed increase in cytotoxicity. As an important control, introduction of SN34037 had no anti-proliferative effects in wild-type SNU398 cells treated with compounds of the invention.

The test system of test [4] is wild-type SNU398 hepatocellular carcinoma cells. Nature of the test: Anti-proliferative IC50 assay, wild-type SNU398. Format: cell-based. The procedure: as §2, §3, §4, §5
The test system of test [5] is wild-type H460 lung cancer cells. Nature of the test: Anti-proliferative IC50 assay, wild-type H460. It counts as cell-based, human. The procedure: as §2, §3, §4
Materials and methods used are as described for Example 9.

In a further test the target is T1, recombinant human AKR1C3 (Homo sapiens, UniProt P42330).
T1 construct: His6 (hexahistidine) (C); made in house; host or cells: E. coli BL21(DE3)
T1 sequence (P42330 1-323): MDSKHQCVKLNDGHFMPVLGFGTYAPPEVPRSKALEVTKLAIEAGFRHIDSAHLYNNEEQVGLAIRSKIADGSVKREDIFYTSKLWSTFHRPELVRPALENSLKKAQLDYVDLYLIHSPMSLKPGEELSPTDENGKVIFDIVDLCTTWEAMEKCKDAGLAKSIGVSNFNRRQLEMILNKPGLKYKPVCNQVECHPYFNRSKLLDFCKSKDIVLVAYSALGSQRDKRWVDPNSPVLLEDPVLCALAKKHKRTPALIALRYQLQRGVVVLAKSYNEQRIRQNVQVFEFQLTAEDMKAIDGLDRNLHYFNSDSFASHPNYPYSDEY
Nature of the test: Kinetics assay: metabolism of prodrugs by recombinant human AKR1C3. Format: biochemical. Particulars: NADPH, pH 7.4, 37° C. On the procedure:
E. coli BL21(DE3) cells expressing the pET22b-AKR1C3 construct with a C-terminal hexahistidine (His6) tag and constitutive promoter was generated. Colonies of these transformed E. coli cells were grown in LB agar medium containing 100 μg/mL of ampicillin. A single colony was picked the following day and grown in 400 mL batches of bacterial medium containing ampicillin (100 μg/mL) at 37° C., with continuous shaking at 200 rpm overnight. Bacterial cultures were pelleted by centrifugation (4000×g, 15 minutes) and resuspended in lysis buffer (10 mL/400 mL culture). The cells were disrupted by sonication (Sonicator 3000, Misonix) and centrifuged at 14,000 rpm for 30 minutes (at 4° C.). The cleared lysate was filtered in successive filters containing pore sizes of 1.20 μm, 0.8 μm and 0.2 μm and loaded onto a nickel-agarose affinity chromatography column on an ÄKTA Purifier system. The column was washed with 20 mL of the lysis buffer and the His6-tagged AKR1C3 protein was eluted with lysis buffer supplemented with 500 mM imidazole. The protein was further purified by a liquid chromatography gel filtration column (Superdex 200 HR16/60) using lysis buffer (supplemented with 5% v/v glycerol) and 1 mM DTT (pH 7.0) at a flow rate of 0.3 mL/min. Protein was monitored by absorbance at 280 nm, and purity of the fractions (1 mL) was assessed by SDS-PAGE. Active fractions containing the purified protein were pooled and concentrated by centrifugation (3,000×g, 4° C.) on a Vivaspin concentrator (MWCO 10,000 cutoff; GE Healthcare). The protein containing solution was supplemented with glycerol (to a final concentration of 15%, v/v) and NADP^+ was added to a final concentration of 2 mM.
Kinetic parameters of compounds of the invention were determined in a 96-well plate format. The 100 mM potassium phosphate buffer used in this assay was made with the following reagents to a pH of 7.4: • 0.5 M K2HPO4— 8.2 mL • 0.5 M KH2PO4— 1.8 mL • BSApowder—25 mg • Milli Q water—40 mL
For the assay, 2 μL of varying substrate concentrations were incubated with 94 μL of the potassium phosphate buffer and 2 μL of 5 mM NADPH for 5 minutes in the pre-warmed (37° C.) plate chamber of a Molecular Devices SpectraMax M2 plate reader. Purified AKR1C3 enzyme (2 μL) was added to a final concentration of […] in each well using an Eppendorf electronic multi-channel pipette. Absorbance measurements were recorded immediately upon addition of enzyme over a period of 5 minutes at a wavelength of 400 nm. Absorbance changes for each compound concentration were plotted against time to obtain the rate of absorbance change over the 5 minute period. The rate of absorbance change was then plotted against the compound concentration and non-linear regression analysis and Michaelis-Menten curve fitting performed on GraphPadPrism (version 5.00 for Windows, GraphPad Software, San Diego Calif. USA) in order to determine kinetic parameters of compounds.

The mark [6] stands for this setting: Homo sapiens, HCT-116, 4 hour exposure, 5 days growth, read-out: HCT116-AKR1C3 IC50.
Where [7] appears, read: with 3 μM SN34037, read-out: HCT116-AKR1C3 + AKR1C3 Inhibitor IC50.
[8] abbreviates: Homo sapiens, HCT-116, 4 hour exposure, 5 days growth, read-out: HCT116-WT IC50.
Where [9] appears, read: with 3 μM SN34037, read-out: HCT116-WT + AKR1C3 Inhibitor IC50.
Setting [10] is: Homo sapiens, SNU-398; read-out: SNU398-AKR1C3 Anti-proliferative IC50.
[11] abbreviates: Homo sapiens, SNU-398; with 3 μM SN34037; read-out: SNU398-AKR1C3 +AKR1C3 Inhibitor Anti-proliferative IC50.
The mark [12] stands for this setting: Homo sapiens, SNU-398; read-out: SNU398-WT Anti-proliferative IC50.
The mark [13] stands for this setting: Homo sapiens, SNU-398; with 3 μM SN34037; read-out: SNU398-WT +AKR1C3 Inhibitor Anti-proliferative IC50.
Where [14] appears, read: Homo sapiens, NCI-H460; read-out: H460-WT Anti-proliferative IC50.
Setting [15] is: Homo sapiens, NCI-H460; with 3 μM SN34037; read-out: H460-WT +AKR1C3 Inhibitor Anti-proliferative IC50.
Where [16] appears, read: Homo sapiens, HCT-116, read-out: HCT116-AKR1C3 IC50.
The mark [17] stands for this setting: Homo sapiens, HCT-116, read-out: HCT116-WT IC50.

Like-named read-outs stand apart in the source and are kept apart here. Bounds are passed on as bounds.

Consider `CS(=O)(=O)OCCN(CCOS(C)(=O)=O)c1ccc([N+](=O)[O-])cc1S(=O)(=O)N1CCN(CC(O)CO)CC1` (stereo not shown) [Compound 644, ((2-((4-(2,3-dihydroxypropyl)piperazin-1-yl)sulfonyl)-4-nitrophenyl)azanediyl)bis(ethane-2,1-diyl) dimethanesulfonate], for which the “IC50 Ratio WT:AKR1C3” value in test [1] came out at 978. The IC50 was determined as 0.109 µM in test [1] (setting [6]); 47 µM in test [1] (setting [7]); 107 µM in test [2] (setting [8]); 112 µM in test [2] (setting [9]); 0.262 µM in test [3] (setting [10]); 63.7 µM in test [3] (setting [11]). Also, the IC50 in test [4] (setting [12]) turned out to be 73.8 µM; in test [4] (setting [13]), 68.4 µM; in test [5] (setting [14]), 0.387 µM; in test [5] (setting [15]), 88.3 µM.

With `CCN1CCN(S(=O)(=O)c2cc([N+](=O)[O-])ccc2N(CCOS(C)(=O)=O)CCOS(C)(=O)=O)CC1` [Compound 642, ((2-((4-ethylpiperazin-1-yl)sulfonyl)-4-nitrophenyl)azanediyl)bis(ethane-2,1-diyl) dimethanesulfonate], in test [1], the “IC50 Ratio WT:AKR1C3” value amounted to 1930. The IC50 in test [1] (setting [16]) worked out at 0.001 µM; in test [1] (read-out: HCT116-AKR1C3 + AKR1C3 Inhibitor IC50, with 3 μM SN34037), 0.828 µM; in test [2] (setting [17]), 1.93 µM; in test [2] (read-out: HCT116-WT + AKR1C3 Inhibitor IC50, with 3 μM SN34037), 2.37 µM; in test [3] (Homo sapiens, SNU-398, read-out: SNU398-AKR1C3 +AKR1C3 Inhibitor Anti-proliferative IC50), 1.28 µM; in test [3] (Homo sapiens, SNU-398, read-out: SNU398-AKR1C3 Anti-proliferative IC50), 0.002 µM. Further, the IC50 in test [4] (Homo sapiens, SNU-398, read-out: SNU398-WT +AKR1C3 Inhibitor Anti-proliferative IC50) is 12.1 µM; in test [4] (Homo sapiens, SNU-398, read-out: SNU398-WT Anti-proliferative IC50), 10.3 µM; in test [5] (Homo sapiens, NCI-H460, read-out: H460-WT +AKR1C3 Inhibitor Anti-proliferative IC50), 2.24 µM; in test [5] (Homo sapiens, NCI-H460, read-out: H460-WT Anti-proliferative IC50) it was 0.001 µM.

On to `O=C(c1cc([N+](=O)[O-])cc([N+](=O)[O-])c1N(CCBr)CCBr)N1CCc2ccccc2C1` [SN34947, reference compound], for which, at recombinant human AKR1C3, the Km was 7.8 µM and the kcat is 23.8 s⁻¹. Further, in test [1], the “IC50 Ratio WT:AKR1C3” value is 28. For the same compound, the IC50 in test [1] (setting [16]) was 2.41 µM. Besides, the IC50 in test [2] (setting [17]) stood at 66.8 µM.

As to `N#Cc1cccc2c1CCN(C(=O)c1cc([N+](=O)[O-])cc([N+](=O)[O-])c1N(CCBr)CCBr)C2` [SN34951, reference compound], at recombinant human AKR1C3, the Km is 8.5 µM and the kcat is 29.0 s⁻¹. Also, the “IC50 Ratio WT:AKR1C3” value in test [1] is >38. Also, the IC50 in test [1] (setting [16]) came to 3.97 µM. Also, the IC50 in test [2] (setting [17]) is > 150 µM.

For the compound `CS(=O)(=O)OCCN(CCOS(C)(=O)=O)c1ccc([N+](=O)[O-])cc1S(=O)(=O)N1CCNCC1` [Compound 640, ((4-nitro-2-(piperazin-1-ylsulfonyl)phenyl)azanediyl)bis(ethane-2,1-diyl) dimethanesulfonate], the “IC50 Ratio WT:AKR1C3” value in test [1] was found to be 469. Further, the IC50 in test [1] (setting [6]) turned out to be 0.009 µM; in test [1] (setting [7]), 2.06 µM; in test [2] (setting [8]), 4.22 µM; in test [2] (setting [9]) it was 4.1 µM; in test [3] (setting [10]), 0.026 µM; in test [3] (setting [11]), 6.54 µM. The IC50 was 8.47 µM in test [4] (setting [12]), 8.49 µM in test [4] (setting [13]), 0.027 µM in test [5] (setting [14]) and 5.88 µM in test [5] (setting [15]).
